Literature values in patent US8307894B2, “Composition and method for inhibiting the deleterious effects of sulfate reducing bacteria” (priority 2009, dated 2012).
Where two headings read alike, the source gives them in different places.

Experiments:
[1] = system: sulfate reducing bacteria; details: government study (12/04)
[2] = system: humans and other mammals
[3] = system: insects and aquatic life including fish
[4] = not given; remark: listed apart in the source

| Compound | inhibition of sulfate reducing bacteria [1] | toxicity [2] | toxicity [3] | Solubility (in ethanol) | Solubility (in ether and acetone) | lifetime in the environment ([4]; breaks down when exposed to sunlight) | persistence in water ([4]; in water) |
| --- | --- | --- | --- | --- | --- | --- | --- |
| [O]=[Mo](=[O])([O-])[O-] [molybdate] | possible candidates as inhibitors |  |  |  |  |  |  |
| C=C(C)[C@H]1Cc2c(ccc3c2O[C@@H]2COc4cc(OC)c(OC)cc4[C@@H]2C3=O)O1 [rotenone] |  | mildly toxic | extremely toxic | slightly soluble | Soluble | six | six |
